Source: paper PMC2833169, “Anti-malarial activity of a non-piperidine library of next-generation quinoline methanols” (Malaria Journal, 2010)
Values after ≈ are worked out from the molar mass of the structure shown. Where two headings read alike, the source gives them in different places.

How the values were obtained:
CYP450 3A4 = target: T1, CYP450 3A4 (Homo sapiens, UniProt P08684); assay: CYP450 inhibition kit (drug-drug interaction), 3A4; format: biochemical
T1 construct: purchased BD Gentest (Franklin Lakes, NJ)
Procedure: (§1) Low IC50s against specific cytochrome P450 isoforms may indicate the potential for a harmful drug interaction to occur in vivo with substrates of that isoform. A lack of metabolic stability in vitro may indicate potential metabolic instability in vivo, and, therefore, a shorter half-life. Drug interaction potential was evaluated in vitro using BD Gentest (Franklin Lakes, NJ) CYP450 inhibition kits as recommended by the manufacturer. Metabolic stability assessments were conducted using in vitro liver microsomes. […] The reaction is started with the addition of 1 U/mL glucose-6-phosphate dehydrogenase G6PD. The mixture is incubated on a shaking platform at 37°C, and aliquots are taken and quenched with the addition of an equal volume of cold acetonitrile at 0, 10, 20, 30, and 60 min. Samples are centrifuged at 3700 rpm for […] at 20°C to remove debris. Sample quantification is carried out by LC/MS, and metabolic half-life is calculated by log plots of the total ion chromatograph area remaining.

CYP450 2D6 = target: T2, CYP450 2D6 (Homo sapiens, UniProt P10635); assay: CYP450 inhibition kit (drug-drug interaction), 2D6; format: biochemical
T2 construct: purchased BD Gentest (Franklin Lakes, NJ)
Procedure: as §1

[1] = tested on: P. falciparum strain TM90C2A; assay: labeled hypoxanthine susceptibility assay, P. falciparum TM90C2A; format: cell-based, Plasmodium falciparum; settings: for IC90: Plasmodium falciparum, TM90C2A; for CSI (C2A/W2): ratio of IC90 C2A to IC90 W2
Procedure: (§2) The in vitro activities of quinoline methanols against P. falciparum strains W2, D6, TM91C235, and TM90C2A were evaluated using the traditional labeled hypoxanthine assay of Desjardins et al as modified by Milhous et al. These four P. falciparum strains were selected since they have various levels of resistance to conventional anti-malarials.

[2] = tested on: P. falciparum strain TM91C235; assay: labeled hypoxanthine susceptibility assay, P. falciparum TM91C235; format: cell-based, Plasmodium falciparum; settings: Plasmodium falciparum
Procedure: as §2

CYP450 1A2 = target: T3, CYP450 1A2 (Homo sapiens, UniProt P05177); assay: CYP450 inhibition kit (drug-drug interaction), 1A2; format: biochemical
T3 construct: purchased BD Gentest (Franklin Lakes, NJ)
T3 sequence (P05177 1-516): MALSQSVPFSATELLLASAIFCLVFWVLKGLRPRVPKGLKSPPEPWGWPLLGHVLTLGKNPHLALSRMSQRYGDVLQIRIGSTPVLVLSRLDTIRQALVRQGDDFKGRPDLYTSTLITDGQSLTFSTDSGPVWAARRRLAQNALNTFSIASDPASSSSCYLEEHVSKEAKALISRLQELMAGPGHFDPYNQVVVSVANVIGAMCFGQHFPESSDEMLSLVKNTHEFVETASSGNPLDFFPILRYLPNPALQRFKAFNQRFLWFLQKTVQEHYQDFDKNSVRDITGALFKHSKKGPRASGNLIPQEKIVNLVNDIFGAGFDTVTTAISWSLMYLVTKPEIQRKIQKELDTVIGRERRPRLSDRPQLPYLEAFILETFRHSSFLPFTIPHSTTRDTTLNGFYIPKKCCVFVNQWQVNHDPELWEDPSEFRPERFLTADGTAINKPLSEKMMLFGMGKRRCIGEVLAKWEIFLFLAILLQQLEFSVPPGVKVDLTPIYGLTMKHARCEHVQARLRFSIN
Procedure: as §1

CYP450 2C19 = target: T4, CYP450 2C19 (Homo sapiens, UniProt P33261); assay: CYP450 inhibition kit (drug-drug interaction), 2C19; format: biochemical
T4 construct: purchased BD Gentest (Franklin Lakes, NJ)
Procedure: as §1

CYP450 2C9 = target: T5, CYP450 2C9 (Homo sapiens, UniProt P11712); assay: CYP450 inhibition kit (drug-drug interaction), 2C9; format: biochemical
T5 construct: purchased BD Gentest (Franklin Lakes, NJ)
Procedure: as §1

[3] = metabolic stability in mouse liver microsomes; format: in vitro ADME; settings: for half-life at 1 μM: pH 7.4, mouse liver microsomes, read-out: Half-life in mouse micro; for HL in Microsomes: Figure 3, species of microsomes not given
Procedure: as §1, with “Interesting compounds were also submitted for drug-drug interaction and metabolic stability assays. Low” for “Low”

[4] = tested on: rodent macrophage (RAW) cell line; assay: cells; settings: Mus musculus, Macrophage, read-out: Macrophage IC50
Procedure: (§3) General cytotoxicity was assessed by first determining LC50 's against a rodent macrophage (RAW) cell line using the 3-(4,5-dimethylthiazole-2-yl)-2,5-diphenyltetrazolium bromide (MTT) assay as described in one of our earlier studies. This screen was conducted to identify compounds that may require de-selection due to generalized toxicity. […] In vitro neurocytotoxicity was assessed by determining LC50s against primary mouse neurons using the MTT assay as described previously. Inhibition of the A2A and A1 receptors was determined at 200 nM in duplicate by Caliper Biosciences (Hanover, Maryland).

in vitro [5] = settings: dog, MDCK-MDR1, pH 7.4
Procedure: (§4) For this reason, the apparent permeability of selected compounds across MDR1-transfected MDCK cell monolayers was determined. This assay is an in vitro surrogate of the blood-brain barrier.
(§5) Permeability was determined by Absorption Systems (Exton, PA). MDR1-MDCK cell monolayers were grown to confluence on collagen-coated, microporous, polycarbonate membranes in 12-well Costar Transwell plates. […] The permeability assay buffer was Hanks Balanced Salt Solution containing 10 mM HEPES and 15 mM glucose at a pH of 7.4. A known p-glycoprotein inhibitor cyclosporin A (CSA) was also added to the assay buffer at 10 μM. Bovine serum albumin (1%) was added to the receiver well. The dosing solution concentrations of the test compounds were 5.0 μM in the assay buffer. All cell monolayers were first pre-incubated for 30 minutes with assay buffer. After 30 minutes, the buffer was removed, replaced with fresh buffer, and time was recorded as 0. […] Cell monolayers were dosed on the apical side (A-to-B) or basolateral side (B-to-A) and incubated at 37°C with 5% CO2 in a humidified incubator. After 2 hours, aliquots were taken from the receiver chambers. Samples were taken from the donor chamber at 0 and 2 hours. Each determination was performed in duplicate. The lucifer yellow flux was also measured for each monolayer to ensure no damage was inflicted to the cell monolayers during the flux period. All samples were assayed by LC/MS/MS using electrospray ionization.
(§6) Apparent permeability in the apical (A-B direction), PappA-B, and percent recovery are reported. Apparent permeability is a measure of the rate of transport across the cell monolayer. Percent recovery refers to the amount of compound recoverable at the end of the assay. Low recovery may indicate non-specific binding to assay plates, instability or accumulation in the cell pellet.
(§7) The apparent permeability, Papp, and percent recovery were calculated as follows:
(§8) Papp = (dCr/dt) × Vr/(A × C0) (1)
(§9) Percent Recovery = 100 × ((Vr × Cr^final) + (Vd × Cd^final))/(Vd × […]) (2)

[6] = tested on: MDR1-transfected MDCK cell monolayers; assay: in vitro; settings: dog, MDCK-MDR1, 2 h, 5 μM, pH 7.4
Procedure: as §4, §5, §6, §7, §8, §9

P. falciparum strain D6 = assay: labeled hypoxanthine susceptibility assay, P. falciparum D6; format: cell-based, Plasmodium falciparum; settings: Plasmodium falciparum
Procedure: as §2

in vitro [7] = settings: mouse
Procedure: as §3

P. falciparum strain W2 = assay: labeled hypoxanthine susceptibility assay, P. falciparum W2; format: cell-based, Plasmodium falciparum; settings: Plasmodium falciparum
Procedure: as §2

in vitro [8] = settings: mouse; remark: listed apart in the source
Procedure: as §3

[9] = D6, read-out: IC90 Pf D6, P. falciparum D6, mefloquine: historical mean +/- SD (n)
[10] = D6, read-out: PF D6 IC90, P. falciparum D6

T5 sequence (P11712 whole entry): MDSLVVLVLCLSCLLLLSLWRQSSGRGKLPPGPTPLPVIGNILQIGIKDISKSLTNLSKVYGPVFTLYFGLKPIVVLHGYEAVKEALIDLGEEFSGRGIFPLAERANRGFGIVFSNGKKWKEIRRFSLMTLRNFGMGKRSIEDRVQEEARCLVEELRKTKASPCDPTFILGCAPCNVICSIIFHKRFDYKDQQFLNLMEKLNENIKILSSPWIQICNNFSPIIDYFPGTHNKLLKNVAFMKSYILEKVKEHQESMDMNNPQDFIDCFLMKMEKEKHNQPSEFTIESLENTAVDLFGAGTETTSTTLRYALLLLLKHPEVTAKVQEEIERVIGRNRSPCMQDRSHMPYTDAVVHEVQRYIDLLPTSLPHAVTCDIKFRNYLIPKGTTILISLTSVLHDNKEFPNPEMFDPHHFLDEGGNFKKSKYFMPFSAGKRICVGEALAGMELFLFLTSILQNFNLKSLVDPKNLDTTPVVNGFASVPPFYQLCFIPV
T4 sequence (P33261 whole entry): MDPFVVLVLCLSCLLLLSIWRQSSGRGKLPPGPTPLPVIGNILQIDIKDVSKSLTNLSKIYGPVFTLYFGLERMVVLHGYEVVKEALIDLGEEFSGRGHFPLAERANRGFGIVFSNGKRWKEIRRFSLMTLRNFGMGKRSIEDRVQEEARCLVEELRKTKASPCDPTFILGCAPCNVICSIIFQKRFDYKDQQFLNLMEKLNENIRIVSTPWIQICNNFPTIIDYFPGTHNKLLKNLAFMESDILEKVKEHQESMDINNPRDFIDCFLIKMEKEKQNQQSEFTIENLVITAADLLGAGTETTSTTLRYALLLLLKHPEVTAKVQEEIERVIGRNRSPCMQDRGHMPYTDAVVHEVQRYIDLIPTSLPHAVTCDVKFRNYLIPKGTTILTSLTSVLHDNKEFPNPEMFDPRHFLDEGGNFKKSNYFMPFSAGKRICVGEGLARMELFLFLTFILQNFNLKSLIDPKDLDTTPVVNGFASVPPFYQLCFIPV
T1 sequence (P08684 whole entry): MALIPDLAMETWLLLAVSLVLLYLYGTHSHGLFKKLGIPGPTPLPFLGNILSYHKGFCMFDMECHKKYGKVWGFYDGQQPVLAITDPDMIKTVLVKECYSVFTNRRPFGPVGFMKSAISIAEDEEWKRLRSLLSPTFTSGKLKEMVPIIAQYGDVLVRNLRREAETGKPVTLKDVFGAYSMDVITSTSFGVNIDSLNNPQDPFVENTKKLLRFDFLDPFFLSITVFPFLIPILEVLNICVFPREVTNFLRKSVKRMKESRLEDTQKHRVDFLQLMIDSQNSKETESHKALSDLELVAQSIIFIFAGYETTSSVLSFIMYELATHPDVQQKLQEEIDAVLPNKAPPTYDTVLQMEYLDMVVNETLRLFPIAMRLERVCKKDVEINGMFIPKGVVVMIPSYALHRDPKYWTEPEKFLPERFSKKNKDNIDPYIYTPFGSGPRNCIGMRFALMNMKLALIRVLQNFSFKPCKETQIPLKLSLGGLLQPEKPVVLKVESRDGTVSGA
T2 sequence (P10635 whole entry): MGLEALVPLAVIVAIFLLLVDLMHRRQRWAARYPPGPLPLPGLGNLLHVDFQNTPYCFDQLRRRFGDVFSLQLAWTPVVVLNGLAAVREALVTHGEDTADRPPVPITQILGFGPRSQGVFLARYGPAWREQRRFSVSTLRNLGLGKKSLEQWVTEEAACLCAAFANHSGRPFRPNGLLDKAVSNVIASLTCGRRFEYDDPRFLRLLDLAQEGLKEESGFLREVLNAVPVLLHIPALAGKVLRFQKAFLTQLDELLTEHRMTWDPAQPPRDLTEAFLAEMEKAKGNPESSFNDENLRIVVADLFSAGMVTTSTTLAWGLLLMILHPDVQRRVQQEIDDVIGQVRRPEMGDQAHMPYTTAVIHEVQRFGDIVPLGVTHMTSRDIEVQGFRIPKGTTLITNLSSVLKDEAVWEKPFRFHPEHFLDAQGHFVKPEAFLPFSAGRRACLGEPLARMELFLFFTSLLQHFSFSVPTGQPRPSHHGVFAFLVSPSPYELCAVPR

CCC(C)CNCC(O)c1cc(C(F)(F)F)nc2c(C(F)(F)F)cccc12 (stereo not drawn) [WR308387]
IC50 (CYP450 3A4): > 40 µM
IC50 (CYP450 2D6): 2 µM
IC90 ([1]; read-out: IC90 Pf C2A): 0.011 µg/mL
IC90 ([1]; read-out: PF C2A IC90): 0.011 µg/mL
IC90 ([1]; read-out: IC90 PfC2A): 0.026 µM
CSI (C2A/W2) [1]: 9.2
IC90 ([2]; read-out: IC90 Pf C235): 0.012 µg/mL (≈ 0.0304 µM)
IC90 ([2]; read-out: PF C235 IC90): 0.0116 µg/mL (≈ 0.0293 µM)
IC50 (CYP450 1A2): 2.1 µM
IC50 (CYP450 2C19): 7 µM
IC50 (CYP450 2C9): 11 µM
half-life at 1 μM [3]: 20 min
IC50 [4]: 20.8 µM
Papp A→B at 2 h, 5 μM (in vitro [5]): 18 ×10⁻⁶ cm/s
% recovery (MDCK-MDR1 permeability assay) [6]: 42%
IC90 (P. falciparum strain D6; [9]): 0.007 µg/mL (≈ 0.0178 µM)
IC90 (P. falciparum strain D6; [10]): 0.00695 µg/mL (≈ 0.0176 µM)
CC50 (in vitro [7]): > 120 µM
IC90 (P. falciparum strain W2; W2, read-out: IC90 Pf W2): 0.0012 µg/mL (≈ 0.00304 µM)
IC90 (P. falciparum strain W2; W2, read-out: PF W2 IC90): 0.00119 µg/mL (≈ 0.00302 µM)

CCCCNCC(O)c1cc(C(F)(F)F)nc2c(C(F)(F)F)cccc12 (racemic) [WR177000]
IC90 ([1]; read-out: IC90 Pf C2A): 0.0123 µg/mL
IC90 ([1]; read-out: IC90 PfC2A): 0.032 µM
IC90 ([2]; read-out: IC90 Pf C235): 0.0089 µg/mL (≈ 0.0234 µM)
HL in Microsomes [3]: 37 min
CC50 (in vitro [8]): 2.78 µg/mL (≈ 7.31 µM)
Papp A→B at 2 h, 5 μM (in vitro [5]): 25.4 ×10⁻⁶ cm/s
% recovery (MDCK-MDR1 permeability assay) [6]: 58%
IC90 (P. falciparum strain D6; [9]): 0.0067 µg/mL (≈ 0.0176 µM)
IC90 (P. falciparum strain W2; W2, read-out: IC90 Pf W2): 0.0017 µg/mL (≈ 0.00447 µM)

CCCCNCCNCC(O)c1cc(C(F)(F)F)nc2c(C(F)(F)F)cccc12 (stereo not drawn) [WR318746]
IC90 ([1]; read-out: IC90 Pf C2A): 0.319 µg/mL
IC90 ([2]; read-out: IC90 Pf C235): 0.283 µg/mL (≈ 0.668 µM)
HL in Microsomes [3]: > 60 min
CC50 (in vitro [8]): 28.5 µg/mL (≈ 67.4 µM)
Papp A→B at 2 h, 5 μM (in vitro [5]): 5.9 ×10⁻⁶ cm/s
% recovery (MDCK-MDR1 permeability assay) [6]: 42%
IC90 (P. falciparum strain D6; [9]): 0.155 µg/mL (≈ 0.366 µM)
IC90 (P. falciparum strain W2; W2, read-out: IC90 Pf W2): 0.09 µg/mL (≈ 0.213 µM)

CCC(CC)CNCC(O)c1cc(C(F)(F)F)nc2c(C(F)(F)F)cccc12 (stereo not drawn) [WR308388]
IC50 (CYP450 3A4): 33 µM
IC50 (CYP450 2D6): 0.8 µM
IC90 ([1]; read-out: IC90 Pf C2A): 0.01 µg/mL
IC90 ([1]; read-out: PF C2A IC90): 0.0102 µg/mL
IC90 ([1]; read-out: IC90 PfC2A): 0.023 µM
CSI (C2A/W2) [1]: 9.1
IC90 ([2]; read-out: IC90 Pf C235): 0.011 µg/mL (≈ 0.0269 µM)
IC90 ([2]; read-out: PF C235 IC90): 0.0109 µg/mL (≈ 0.0267 µM)
IC50 (CYP450 1A2): 1.2 µM
IC50 (CYP450 2C19): 3.4 µM
IC50 (CYP450 2C9): 13 µM
half-life at 1 μM [3]: 16 min
IC50 [4]: 15.7 µM
IC90 (P. falciparum strain D6; [9]): 0.0067 µg/mL (≈ 0.0164 µM)
IC90 (P. falciparum strain D6; [10]): 0.00671 µg/mL (≈ 0.0164 µM)
CC50 (in vitro [7]): 56 µM
IC90 (P. falciparum strain W2; W2, read-out: IC90 Pf W2): 0.0011 µg/mL (≈ 0.00269 µM)
IC90 (P. falciparum strain W2; W2, read-out: PF W2 IC90): 0.00112 µg/mL (≈ 0.00274 µM)

CC1C(NCC(O)c2cc(C(F)(F)F)nc3c(C(F)(F)F)cccc23)CC2CC1C2(C)C (stereo not drawn) [WR308446]
IC50 (CYP450 3A4): > 40 µM
IC50 (CYP450 2D6): 9.1 µM
IC90 ([1]; read-out: IC90 Pf C2A): 0.016 µg/mL
IC90 ([1]; read-out: PF C2A IC90): 0.0155 µg/mL
IC90 ([1]; read-out: IC90 PfC2A): 0.034 µM
IC90 ([2]; read-out: IC90 Pf C235): 0.019 µg/mL (≈ 0.0413 µM)
IC90 ([2]; read-out: PF C235 IC90): 0.0189 µg/mL (≈ 0.041 µM)
IC50 (CYP450 1A2): > 40 µM
IC50 (CYP450 2C19): 14 µM
IC50 (CYP450 2C9): 16 µM
half-life at 1 μM [3]: 13 min
IC50 [4]: 8.85 µM
IC90 (P. falciparum strain D6; [9]): 0.014 µg/mL (≈ 0.0304 µM)
IC90 (P. falciparum strain D6; [10]): 0.0143 µg/mL (≈ 0.0311 µM)
CC50 (in vitro [7]): 48 µM
IC90 (P. falciparum strain W2; W2, read-out: IC90 Pf W2): < 0.001 µg/mL
IC90 (P. falciparum strain W2; W2, read-out: PF W2 IC90): < 0.00048 µg/mL
